Results from US8288363B2, “Medicaments for anti-herpes virus treatments” (ASE & BIO, priority 2006, dated 2012).

What was measured:
[1] = system: HSV-1, HSV-1R, HSV-2 and HSV-2R; test: Action on the viral infection: vero cells pretreated before infection; format: cell-based, herpes simplex virus
Experimental: The abovementioned viral suspensions of HSV-1, HSV-1R, HSV-2 and HSV-2R, defined by an MOI of 0.01 ID50/cell for a cell concentration of 350,000 cells/ml, were tested.
Acyclovir and dextran sulphate used at concentrations comprised between 0.05 and 5 μg/ml were used as reference products in this series of experiments. PS3 concentrations of 0.125 to 1,250 μg/ml were used, and the experiments were carried out in 96-well microtitre plates.
To verify whether PS3 protects a cell culture when it is used before its infection by the abovementioned viral strains, the procedure was as follows.
Vero cells were seeded at a cell density of […] in 100 μl of MEM medium containing 8% FCS.
A solution of 50 μl of PS3 or the comparison product, that is to say acyclovir having a given concentration, was then added to each well filled with 50 μl of MEM medium with 8% FCS.
The microtitre plate containing the cells treated with PS3 or the reference product was than placed in an oven at 37° C. for 6, 12 or 24 hours. The cells were then washed with 100 μl of MEM medium in order to remove the PS3 or the reference product.
A volume of 50 μl of a viral suspension was then added to each well, as well as 50 μl of MEM medium with 8% FCS; and the plates were kept at 4° C. for 1 hour.
The infected cells were then placed in an oven at 37° C. for 48 or 72 hours.

[2] = system: HSV-1, HSV-1R, HSV-2 and HSV-2R; test: Virucidal action: viral suspensions treated before infection of vero cells; format: cell-based, herpes simplex virus
Experimental: To determine whether PS3 has a virucidal effect, the procedure was as follows.
Vero cells were seeded at a cell density of 3·10^4 cells/well of a microtitre plate in 100 μl of MEM medium containing 8% FCS for 24 hours before the test.
On the day of the test, 50 μl of each of the viral suspensions identified above were treated with 50 μl of PS3 or reference product (acyclovir) having a given concentration for one hour at 37° C.
An amount of 100 μl of the mixture of this viral suspension, to which PS3 or the reference product had been added, was introduced into each well of the microtitre plate. The plate was kept at 4° C. for one hour.
It is to be noted that controls of the growth of the cells and of the viruses were run simultaneously.
The plates containing the infected cells were then placed in an oven at 37° C. for 48 or 72 hours.
The virucidal effect of PS3 was evaluated by measurement of the EC50 values determined in accordance with the method described in Example 3.

[3] = system: HSV-1, HSV-1R, HSV-2 and HSV-2R; test: Action on the viral penetration; format: cell-based, herpes simplex virus
Experimental: To determine whether PS3 has an effect on the viral penetration, the procedure was as follows.
Vero cells were seeded at a cell density of 3.5·10^4 cells/well of a microtitre plate in 100 μl of MEM medium containing 8% FCS.
After 24 hours, the confluent cells were brought into contact with 50 μl of a viral suspension for 1 hour at 4° C.
The cell carpet was then incubated with various concentrations of PS3 (0.125-1,250 μg/ml) or reference product, in this case acyclovir ([…]), at 37° C. in order to facilitate penetration of the viruses.
After incubation times of 15, 30 and 60 minutes, the corresponding cells were washed with 100 μl of PBS and then treated for 1 minute with 0.5 mg/ml of proteinase K (Sigma) in solution in PBS in order to remove all the extracellular viruses which had not been adsorbed.
This treatment was stopped by addition of 1 mM of phenylmethylsulphonyl fluoride (Sigma) in solution in PBS containing 3% FCS.
The cells were then washed with 100 μl of PBS per well and cultured again at 37° C. in 200 μl of MEM medium supplemented with 8% FCS.
Controls of the growth of the cells and of the viruses were run simultaneously. After incubation for 48 hours, the effect of PS3 and of acyclovir on the penetration of the virus was measured using the neutral red method.

[4] = system: acyclovir-resistant strain HSV-1R; test: Anti-herpes activity, viability of infected vero cells (neutral red); format: cell-based, herpes simplex virus 1; settings: for Anti-herpes activity (conclusion in words) / EC50: HSV-1R; for Anti-herpes activity (conclusion in words): 48 and 72 hours; for EC50: MOI 0.01 ID50/cell
Experimental: This method is based on the principle that living cells absorb neutral red, which is a vital stain. The optical density of the medium was measured at the maximum absorption wavelength of neutral red, that is to say 540 nm, using a spectrophotometer (SpectraCount™, microplate photometer, Packard). The optical density at 540 nm is proportional to the number of living cells in an infected culture (McLaren et al., Antiviral Research, 1983; 3: 223-234 and Langlois et al., Standardization, 1986, 14: 201-211).
The effective concentration (EC 50%), that is to say the concentration of the sulphated polysaccharide which enables infection of 50% of the cells of a culture to be inhibited, was measured for each viral strain.
The determination of the EC50 was carried out in 96-well microtitre plates in accordance with the following protocol. Vero cells are seeded at a cell density of 3.5·10^4 cells/well in 100 μl of MEM medium containing 8% FCS. For each viral suspension defined by its MOI: • the negative control column was filled with 100 μl of MEM medium with 8% FCS, • the virus control column was filled with 50 μl of viral suspension having the required MOI and with 50 μl of MEM medium with 8% FCS, • the PS3 control column was filled with 50 μl of PS3 having the desired concentration range or with 50 μl of acyclovir (Zovirax 0.05-5 μg/ml • finally, all the other columns were filled successively with 50 μl of PS3 having the required concentration range or with 50 μl of acyclovir (Zovirax 0.05-5 μg/ml) and with 50 μl of the viral suspension having the desired MOI.
The EC50 corresponding to the concentration which enables the cytopathic effect of the virus to be reduced by 50% was calculated in accordance with the following formula: […]
The anti-herpes activity of PS3 was evaluated and compared on each viral suspension of HSV-1, HSV-1R, HSV-2 and HSV-2R defined by an MOI of 0.01 ID50/cell for a cell concentration of 350,000 cells/ml, after incubation times of 48 and 72 hours.
This series of experiments was carried out applying the protocol enabling the EC50 to be determined, as described in Example 3.
The therapeutic indices (TI) of PS3, as well as three other reference products, that is to say acyclovir, dextran sulphate and phycarine, were determined in parallel for each viral strain.
The therapeutic index (TI) represents the ratio between the maximum non-toxic dose (or a dose inducing a quantified toxicity) and the dose inducing a favourable pharmacological effect.

[5] = non-resistant strains HSV-1 and HSV-2
[6] = strains HSV-1, HSV-2, HSV-1R, HSV-2R, cells pretreated 6, 12 or 24 hours, washed, then infected

## Nc1nc2c(ncn2COCCO)c(=O)[nH]1 [Acyclovir, acyclovir, reference compound]
[1]; [5]
  Effect before infection: no
[1]; [6]
  Effect before infection: not protected
[2]; [5]
  Virucidal effect: no
[3]; [5]
  Effect on penetration: no
[4]
  Anti-herpes activity (conclusion in words): not effective
[4]; incubation time 48 hours
  Therapeutic index HSV-1R: 0
[4]; incubation time 72 hours
  Therapeutic index HSV-1R: 0

## sulphated laminarin [PS3]
[1]; [6]
  Effect before infection: not protected and no
[2]; strains HSV-1, HSV-2, HSV-1R, HSV-2R, viral suspension treated one hour at 37° C.
  Virucidal effect: no virucidal effect and no
[3]; strains HSV-1, HSV-2, HSV-1R, HSV-2R
  Effect on penetration: no antiviral activity on penetration and no
[4]
  Anti-herpes activity (conclusion in words): more effective than acyclovir
[4]; after 48 hours of treatment
  EC50: less than 2 μg/ml
[4]; after 72 hours of treatment
  EC50: less than 5 μg/ml
[4]; incubation time 48 hours
  Therapeutic index HSV-1R: >1,157
[4]; incubation time 72 hours
  Therapeutic index HSV-1R: >530
